According to US20120157421A1, “17Beta-Alkyl-17Alpha-oxy-estratrienes” (BAYER PHARMA AKTIENGESELLSCHAFT, priority 2009, published 2012):

Columns and labels:
[1] = metabolic stability in human liver microsomes; assay type: in vitro ADME; conditions: estimated maximum oral bioavailability from human liver microsome incubation; 0.3 μM, 0.5 mg/ml protein, 37° C., 60 min
Method: The metabolic stability of test substances was determined by incubations in a suspension with human liver microsomes adjusted to a protein content of 0.5 mg/ml, at a concentration of 0.3 μM. The incubation volume was 3.03 ml, where 2.4 ml of a microsome suspension in phosphate buffer at pH 7.4 (sodium phosphate buffer 100 mM (NaH2PO4×H2O+Na2HPO4×2H2O) were initially charged, which were activated by addition of 0.6 ml of a cofactor mix (consisting of 1.2 mg of NADP, 3 IU of glucose 6-phosphate dehydrogenase, 14.6 mg of glucose 6-phosphate and 4.9 mg of MgCl2 in phosphate buffer, pH 7.4). The assay was started by addition of 30 μL of a test substance stock solution, where the composition of the stock solution was such that the solvent concentrations during the incubation were <0.2% for DMSO and <1% for methanol. The incubations were carried out at an incubation temperature of 37° C. over a period of 60 minutes, during which time the microsomes were kept in a homogeneous suspension by continuous stirring (Tec Control Shaker RS 485 at 300 rpm). At 6 different points in time (2, 8, 16, 30, 45 & 60 min), aliquots of in each case 250 μl were removed and immediately added to the same volume of ice-cold methanol and covered.
The decrease in concentrations over time were used to determine the half-life of the test substance in the microsomal incubation mixture described above, which in turn was used to calculate the “intrinsic clearance”, the maximum liver microsome rate for the metabolic elimination of the test substance. This “intrinsic clearance” for its part can be used together with various physiological parameters to estimate the maximum metabolic clearance in man, where the principle mentioned above is only capable of representing phase I metabolic reactions (typically: oxidoreductive reactions of Zytochrom P450 enzymes or flavin monooxigenase, and also hydrolytic reactions of esterases and amidases). Physiological parameters are: human liver blood flow: 1.3 l/kg/h; specific liver weight (per kg of body weight): 21 g/kg; microsomal protein content: 40 mg/g of liver. Furthermore, assuming that (i) the resorption of the test substance in humans is 100%, and (ii) the estimated metabolic clearance can be calculated as first pass, a maximum oral bioavailability (Fmax) was estimated.
Formulae & brief illustrations: CL intrinsic-apparent [in ml/(min*mg of protein)]: reflects the elimination constant kel (in min-1) of the test substance in the incubation mixture, divided by the microsomal protein content ([…]). CL intrinsic [in l(h*kg)]: maximum capability of the liver (microsomes) for metabolic elimination of the test substance, unless the liver blood flow is the limiting factor (kel*liver weight)/liver proportion (microsomal content) in the incubation. CL blood-well stirred [in l/(h*kg)]: estimated blood clearance (via Phase 1 metabolism): (QH*CL intrinsic)/(QH+CL intrinsic). Fmax [in %]: maximum bioavailability after oral administration of the test substance: (1-CL blood-well stirred/QH)*100.

[2] = system: uterus growth in rats with simultaneous administration of oestradiol benzoate (EB); assay: uterus growth test in infant rats, p.o. (test for antioestrogen action); assay type: in vivo, rat; conditions: inhibition of uterus growth relative to EB control; infant female rats; 0.5 μg EB/0.1 ml s.c. plus test compound p.o. in the range of 0.03 mg/kg body weight, once daily for three days
Method: To examine the efficacy of the compounds according to the invention, in vivo tests with infant rats were carried out. To this end, the growth of the uterus with peroral administration (p.o.) of the pharmaceutical was examined (test for antioestrogen action).
The principle of this method is to investigate the effect of an administration of compounds having antioestrogen action with simultaneous administration of oestrogens. In rodents, the administration of oestrogens results in an increased weight of the uterus (both by proliferation and by hydropexia). This growth can be inhibited in a dosage-related manner by simultaneous administration of compounds with antioestrogen action.
For the tests, infant female rats having a weight of 35-45 g were examined at the start of the experiment. Five to six animals per dose were tested. For the p.o. administration, the substances were dissolved in one part of ethanol (E) and made up with nine parts of peanut oil (PO). For acclimatization, the young rats just dropped by the mothers were delivered one day before the start of the treatment and immediately supplied with food—right in the cage. For three days, the animals were then treated in combination with 0.5 μg of oestradiol benzoate (EB) once per day. EB was always administrated subcutaneously (s.c.), whereas the test substance was administered p.o. 24 hours after the last administration, the animals were weighed and killed, and the uteri were removed. The moist weights (less contents) of the prepared uteri were determined. The following control studies were carried out: for a negative control, 0.2 ml of an E/PO mixture was administered per animal and day. […]
For each group, the means with standard deviation (X±SD) and the significance of the differences to the control group (EB) of the relative organ weights (mg/100 g of body weight) were determined in the Dunnett test (p<0.05). The inhibition (in %) relative to the EB control was determined using a calculation programme. The relative efficacy of the test substances was calculated by covariance and regression analysis.

Structure (SMILES) | Fmax (micros.) [%] [1] | Inhibition [%] [2]
CN(CCCCCCCC(F)(F)C(F)(F)F)CCCCCC1Cc2cc(O)ccc2C2[C@@H]1C1CC[C@@](C)(O)[C@@]1(C)C[C@@H]2F (stereo partly drawn) [Example 1, [5-(11β-Fluoro-3,17α-dihydroxy-17β-methyloestra-1,3,5(10)-trien-7α-yl)pentyl](methyl)(8,8,9,9,9-pentafluorononyl)amine] | 39% | 42-59%
C[C@]12C[C@H](F)C3c4ccc(O)cc4CC(CCCCCN4CCC[C@H]4CCCCCCC(F)(F)C(F)(F)F)[C@H]3C1CC[C@@]2(C)O (stereo partly drawn) [Example 2, 11β-Fluoro-17β-methyl-7α-[5-[(2R)-2-(7,7,8,8,8-pentafluorooctyl)-1-pyrrolidinyl]pentyl]-oestra-1,3,5(10)-triene-3,17α-diol] | 36% | 70%
C[C@]12C[C@H](F)C3c4ccc(O)cc4CC(CCCCCN4CCC[C@H]4CCCCCC(F)(F)C(F)(F)F)[C@H]3C1CC[C@@]2(C)O (stereo partly drawn) [Example 3, 11β-Fluoro-17β-methyl-7α-[5-[(2R)-2-(6,6,7,7,7-pentafluoroheptyl)-1-pyrrolidinyl]pentyl]oestra-1,3,5(10)-triene-3,17α-diol] | 40% | 40%
CN(CCCCCCCC(F)(F)C(F)(F)F)CCCCCC1Cc2c(ccc(O)c2Cl)C2[C@@H]1C1CC[C@@](C)(O)[C@@]1(C)C[C@@H]2F (stereo partly drawn) [Example 4, 4-Chloro-11β-fluoro-17β-methyl-7α-[5-[methyl(8,8,9,9,9-pentafluorononyl)amino]pentyl]-oestra-1,3,5(10)-triene-3,17α-diol] | 39% | 
CN(CCCCCCCC(F)(F)C(F)(F)F)CCCCCC1Cc2c(ccc(O)c2Br)C2[C@@H]1C1CC[C@@](C)(O)[C@@]1(C)C[C@@H]2F (stereo partly drawn) [Example 5, 4-Bromo-11β-fluoro-17β-methyl-7α-[5-[methyl(8,8,9,9,9-pentafluorononyl)amino]pentyl]oestra-1,3,5(10)-triene-3,17α-diol] | 55% | 
C[C@]12C[C@H](F)C3c4ccc(O)c(Br)c4CC(CCCCCN4CCC[C@H]4CCCCCCC(F)(F)C(F)(F)F)[C@H]3C1CC[C@@]2(C)O (stereo partly drawn) [Example 6, 4-Bromo-11β-fluoro-17β-methyl-7α-[5-[(2R)-2-(7,7,8,8,8-pentafluorooctyl)-1-pyrrolidinyl]pentyl]oestra-1,3,5(10)-triene-3,17α-diol] | 34% | 
C[C@]12C[C@H](F)C3c4ccc(O)c(Cl)c4CC(CCCCCN4CCC[C@H]4CCCCCCC(F)(F)C(F)(F)F)[C@H]3C1CC[C@@]2(C)O (stereo partly drawn) [Example 7, 4-Chloro-11β-fluoro-17β-methyl-7α-[5-[(2R)-2-(7,7,8,8,8-pentafluorooctyl)-1-pyrrolidinyl]pentyl]oestra-1,3,5(10)-triene-3,17α-diol] | 47% | 
C[C@]12C[C@H](F)C3c4ccc(O)c(Br)c4CC(CCCCCN4CCC[C@H]4CCCCCC(F)(F)C(F)(F)F)[C@H]3C1CC[C@@]2(C)O (stereo partly drawn) [Example 8, 4-Bromo-11β-fluoro-17β-methyl-7α-[5-[(2R)-2-(6,6,7,7,7-pentafluoroheptyl)-1-pyrrolidinyl]pentyl]oestra-1,3,5(10)-triene-3,17α-diol] | 48% | 
C[C@]12C[C@H](F)C3c4ccc(O)c(Cl)c4CC(CCCCCN4CCC[C@H]4CCCCCC(F)(F)C(F)(F)F)[C@H]3C1CC[C@@]2(C)O (stereo partly drawn) [Example 9, 4-Chloro-11β-fluoro-17β-methyl-7α-[5-[(2R)-2-(6,6,7,7,7-pentafluoroheptyl)-1-pyrrolidinyl]pentyl]oestra-1,3,5(10)-triene-3,17α-diol] | 42% | 
C[C@]12C[C@H](F)C3c4cc(Cl)c(O)c(Cl)c4CC(CCCCCN4CCC[C@H]4CCCCCCC(F)(F)C(F)(F)F)[C@H]3C1CC[C@@]2(C)O (stereo partly drawn) [Example 10, 2,4-Dichloro-11β-fluoro-17β-methyl-7α-[5-[(2R)-2-(7,7,8,8,8-pentafluorooctyl)-1-pyrrolidinyl]pentyl]oestra-1,3,5(10)-triene-3,17α-diol] | 34% | 
CN(CCCCCCCC(F)(F)C(F)(F)F)CCCCCC1Cc2cc(O)ccc2C2[C@@H]1C1CC[C@](C)(O)[C@@]1(C)C[C@@H]2F (stereo partly drawn) [Example C1, 11β-Fluoro-17α-methyl-7α-[5-[methyl(8,8,9,9,9-pentafluorononyl)amino]pentyl]oestra-1,3,5(10)-triene-3,17β-diol, reference compound] | 9% | 
C[C@]1(O)CCC2[C@@H]3C(CCCCCN4CCC[C@H]4CCCCCCC(F)(F)C(F)(F)F)Cc4cc(O)ccc4C3[C@@H](F)C[C@@]21C (stereo partly drawn) [Example C2, 11β-Fluoro-17α-methyl-7α-[5-[(2R)-2-(7,7,8,8,8-pentafluorooctyl)-1-pyrrolidinyl]pentyl]-oestra-1,3,5(10)-triene-3,17β-diol, reference compound] | 9% | 
C[C@]1(O)CCC2[C@@H]3C(CCCCCN4CCC[C@H]4CCCCCC(F)(F)C(F)(F)F)Cc4cc(O)ccc4C3[C@@H](F)C[C@@]21C (stereo partly drawn) [Example C3, 11β-Fluoro-17α-methyl-7α-[5-[(2R)-2-(6,6,7,7,7-pentafluoroheptyl)-1-pyrrolidinyl]pentyl]oestra-1,3,5(10)-triene-3,17β-diol, reference compound] | 8% | 
